The subject of experiment [1] is S. aureus MRSA (ATCC 33591). The experiment can be described thus: MIC susceptibility testing. The class given is cell-based, Staphylococcus aureus. The note with it: Staphylococcus aureus, read-out: (G) MRSA (ATCC33591) MIC. The method, boiled down: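 CLSI broth microdilution with two-fold compound dilutions, in triplicate; cells added in medium at 1×10^6 CFUs/mL, DMSO ≤0.5%. Media: MHB for S. aureus, CA-MHB for E. coli and E. faecium, CA-MHB plus 3% laked horse blood for S. pyogenes (5% CO2).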

The subject of experiment [2] is S. aureus MSSA (ATCC 29213). The experiment can be described thus: MIC susceptibility testing. The class given is cell-based, Staphylococcus aureus. The following applies: for MIC: Staphylococcus aureus, read-out: (F) S. aureus (ATCC 29213) MIC.
Experiment [3] concerns E. faecium VRE (ATCC 51559). Briefly: MIC susceptibility testing. In kind it is cell-based, Enterococcus faecium. The note with it: Enterococcus faecium, read-out: (I) E. faecium (ATCC 51559) MIC. The source says: Media and culture conditions. Mueller Hinton broth (MHB), cation adjusted Mueller Hinton broth (CA-MHB), and Brain Heart Infusion broth (BHI) were purchased from Becton Dickinson (Franklin Lakes, N.J.). Tryptic soy agar (TSA) plates, TSA with 5% sheep blood plates, and CA-MHB with 3% laked horse blood were purchased from Remel (San Diego, Calif.). MHB was used to assay all Staphylococcus aureus strains. CA-MHB was used for Staphylococcus epidermidis, Enterococcus faecalis, Enterococcus faecium, Escherichia coli, and Pseudomonas aeruginosa. CA-MHB supplemented with 3% laked horse blood was used for Streptococcus pneumoniae and Streptococcus pyogenes. Staphylococcus, Enterococcus, Escherichia, and Pseudomonas strains were cultured at 37° C. with ambient air. Streptococcus strains were cultured in 37° C. with 5% CO2. Separate conditions for radiolabeled precursor uptake assays are described below.
Susceptibility testing: Minimum inhibitory concentration (MIC) determinations were performed in triplicate in 96-well round bottom microtiter plates (Corning, Corning N.Y.) as described by the Clinical and Laboratory Standards Institute (CLSI). Serial two-fold dilutions of compounds were added to plates in 50 μL volumes. An additional 50 μL of media containing bacterial cells (1×10^6 CFUs/mL) was then added to each well. Maximum DMSO concentrations were 0.5%. Plates were incubated at 37° C. for at least 18 h before reading the susceptibility result by optical absorbance (OD600) using a BioTek ELx800. The lowest concentration causing ≥90% growth inhibition compared to the untreated control was recorded as the MIC (and also corresponded to the visual MIC). MICs were measured at least twice and the higher value (if different) was recorded herein.

The target in a further experiment is T1, MetRS (T. brucei) (Trypanosoma brucei brucei, UniProt Q38C91).
T1 sequence (Q38C91 1-773): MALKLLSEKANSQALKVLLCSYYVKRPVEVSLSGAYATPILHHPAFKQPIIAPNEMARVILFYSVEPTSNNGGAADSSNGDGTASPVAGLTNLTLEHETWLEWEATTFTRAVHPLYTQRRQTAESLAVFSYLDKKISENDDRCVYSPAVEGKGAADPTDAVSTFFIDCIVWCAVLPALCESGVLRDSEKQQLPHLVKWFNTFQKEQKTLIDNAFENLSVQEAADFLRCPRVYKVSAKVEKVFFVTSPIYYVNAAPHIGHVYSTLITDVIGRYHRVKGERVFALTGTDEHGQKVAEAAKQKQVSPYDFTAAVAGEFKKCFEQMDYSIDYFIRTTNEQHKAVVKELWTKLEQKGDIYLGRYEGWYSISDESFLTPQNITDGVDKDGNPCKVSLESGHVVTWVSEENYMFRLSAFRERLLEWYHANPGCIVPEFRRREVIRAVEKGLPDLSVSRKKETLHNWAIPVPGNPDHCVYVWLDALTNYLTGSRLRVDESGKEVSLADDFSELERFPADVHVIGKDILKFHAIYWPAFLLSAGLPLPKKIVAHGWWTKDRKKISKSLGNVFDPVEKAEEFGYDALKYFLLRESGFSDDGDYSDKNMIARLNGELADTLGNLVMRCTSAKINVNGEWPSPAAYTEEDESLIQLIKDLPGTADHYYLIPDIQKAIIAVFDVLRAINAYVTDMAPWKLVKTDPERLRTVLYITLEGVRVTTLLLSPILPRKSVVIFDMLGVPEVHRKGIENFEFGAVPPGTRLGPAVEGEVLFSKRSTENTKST
The experiment can be described thus: MetRS (T. brucei) enzyme inhibition. In kind it is biochemical.

In a further experiment the target is MetRS (C. parvum) (Cryptosporidium parvum, UniProt Q5CVN0). The experiment can be described thus: MetRS (C. parvum) enzyme inhibition. The class given is biochemical.
In the next experiment the test system is T. brucei. The experiment can be described thus: T. brucei growth inhibition. In kind it is cell-based, Trypanosoma brucei. The following applies: Trypanosoma brucei; read-out: (D) T. brucei EC50.
The subject of a further experiment is T. cruzi. The experiment can be described thus: T. cruzi growth inhibition. In kind it is cell-based, Trypanosoma cruzi. The note with it: read-out: (E) T. cruzi EC50.
For a further experiment, the system named is C. parvum. Briefly: C. parvum growth inhibition. The note with it: read-out: (J) C. parvum EC50. The class given is cell-based, Cryptosporidium parvum.
Where [4] appears, read: read-out: (C) MetRS (C. parvum) IC50.

In brackets after ≈: the same amount, converted by molar mass. Read-outs that look alike come from different tables or passages of the source.

By MIC is commonly meant the lowest concentration that inhibits growth of the organism. As a reminder, the IC50 is the concentration needed to halve the response being measured. Broadly, the EC50 is the concentration that produces a half-maximal response.

Chain of MetRS (C. parvum) (Q5CVN0 entry or part of it): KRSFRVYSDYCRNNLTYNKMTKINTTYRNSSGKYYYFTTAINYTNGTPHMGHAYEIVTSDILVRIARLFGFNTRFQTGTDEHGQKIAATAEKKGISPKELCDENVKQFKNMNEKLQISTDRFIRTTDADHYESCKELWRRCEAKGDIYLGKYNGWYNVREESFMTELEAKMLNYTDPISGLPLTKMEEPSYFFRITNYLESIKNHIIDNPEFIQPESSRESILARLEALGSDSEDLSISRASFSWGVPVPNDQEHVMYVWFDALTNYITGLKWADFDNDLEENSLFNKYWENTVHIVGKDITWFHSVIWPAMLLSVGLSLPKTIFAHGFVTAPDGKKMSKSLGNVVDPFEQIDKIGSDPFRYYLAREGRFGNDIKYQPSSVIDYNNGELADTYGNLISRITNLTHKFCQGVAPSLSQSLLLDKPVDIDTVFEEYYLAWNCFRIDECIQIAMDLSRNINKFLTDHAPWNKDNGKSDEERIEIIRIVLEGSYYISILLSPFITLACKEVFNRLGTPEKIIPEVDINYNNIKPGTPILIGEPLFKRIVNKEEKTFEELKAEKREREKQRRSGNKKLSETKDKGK

As for `COc1ccc(-c2cncc3nc(Cc4nc5nc(Cl)ccc5[nH]4)cn23)c(Cl)c1` [Compound 2156, 2-({5-chloro-1H-imidazo[4,5-b]pyridin-2-yl}methyl)-5-(2-chloro-4-methoxyphenyl)imidazo[1,2-a]pyrazine], the MIC in experiment [1] (MRSA ATCC33591) turned out to be 0.285 mg/L (≈ 0.67 µM); in experiment [2] (S. aureus ATCC 29213) it was 1.1 mg/L (≈ 2.59 µM); in experiment [3] (E. faecium ATCC 51559) it was 1.49 mg/L (≈ 3.5 µM). In experiment [2] (S. aureus ATCC 29213), the “(F) S. aureus (ATCC 29213) MIC” value was 0.946 mg/L. Further, the IC50 against MetRS (T. brucei) and on MetRS (C. parvum) (setting [4]) was below 0.04 µM throughout. Besides, the values for the EC50 in the experiment on T. brucei, in the experiment with T. cruzi (Trypanosoma cruzi) and in the experiment with C. parvum (Cryptosporidium parvum) were 0.032 µM, 0.319 µM and 1.29 µM, respectively.
Regarding `COc1ccc(-c2ccc(NC(C)=O)c3nc(Cc4nc5cc(Cl)ccc5[nH]4)cn23)c(Cl)c1` [Compound 2180, N-{2-[(6-chloro-1H-1,3-benzodiazol-2-yl)methyl]-5-(2-chloro-4-methoxyphenyl)imidazo[1,2-a]pyridin-8-yl}acetamide], the MIC is 0.515 mg/L (≈ 1.07 µM) in experiment [1] (MRSA ATCC33591), 0.362 mg/L (≈ 0.754 µM) in experiment [2] (S. aureus ATCC 29213) and 0.357 mg/L (≈ 0.743 µM) in experiment [3] (E. faecium ATCC 51559). In addition, the IC50 against MetRS (T. brucei) and at MetRS (C. parvum) (setting [4]) was below 0.04 µM in each case. The EC50 in the experiment on T. brucei is 0.0185 µM; with T. cruzi (Trypanosoma cruzi), 0.179 µM; in the experiment with C. parvum (Cryptosporidium parvum), 0.656 µM; in the experiment with C. parvum, 0.64 µM.
Take `Clc1ccc(Cc2cn(Cc3nc4nc(Cl)ccc4[nH]3)cn2)c(Cl)c1` [Compound 2189, 1-({5-chloro-1H-imidazo[4,5-b]pyridin-2-yl}methyl)-4-[(2,4-dichlorophenyl)methyl]-1H-imidazole]: the MIC in experiment [1] is 0.596 mg/L (≈ 1.52 µM); in experiment [2], 0.676 mg/L (≈ 1.72 µM); in experiment [3], 0.704 mg/L (≈ 1.79 µM). The IC50 on MetRS (T. brucei) and at MetRS (C. parvum) was below 0.04 µM in each case. Also, the figures for the EC50 in the experiment on T. brucei, with T. cruzi (Trypanosoma cruzi) and in the experiment on C. parvum (Cryptosporidium parvum) were 0.0079 µM, 0.156 µM and 2 µM, respectively.
Take `O=C(c1cn(Cc2nc3ccc(Cl)nc3[nH]2)c(=O)[nH]1)c1ccc(Cl)cc1Cl` [Compound 2201, 1-({5-chloro-1H-imidazo[4,5-b]pyridin-2-yl}methyl)-4-(2,4-dichlorobenzoyl)-2,3-dihydro-1H-imidazol-2-one]: the values for the MIC in experiment [1] (MRSA ATCC33591), in experiment [2] (S. aureus ATCC 29213) and in experiment [3] (E. faecium ATCC 51559) were 0.701 mg/L (≈ 1.66 µM), 0.863 mg/L (≈ 2.04 µM) and 0.979 mg/L (≈ 2.32 µM), respectively. Moreover, the “(F) S. aureus (ATCC 29213) MIC” value in experiment [2] (S. aureus ATCC 29213) was 0.946 mg/L. Besides, the results for the IC50 against MetRS (T. brucei) and at MetRS (C. parvum) (setting [4]) were below 0.04 µM and 0.0722 µM, respectively. Also, the EC50 in the experiment on T. brucei is 0.00488 µM; in the experiment with T. cruzi (Trypanosoma cruzi), 0.207 µM; in the experiment on C. parvum (Cryptosporidium parvum), above 2 µM.
As to `CCn1c(C(=O)c2ccc(Cl)cc2Cl)cn(Cc2nc3ccc(Cl)nc3[nH]2)c1=O` [Compound 2203, 1-((5-chloro-3H-imidazo[4,5-b]pyridin-2-yl)methyl)-4-(2,4-dichlorobenzoyl)-3-ethyl-1,3-dihydro-2H-imidazol-2-one], the MIC was determined as 0.359 mg/L (≈ 0.797 µM) in experiment [1] (MRSA ATCC33591), 0.34 mg/L (≈ 0.754 µM) in experiment [2] (S. aureus ATCC 29213) and 0.172 mg/L (≈ 0.382 µM) in experiment [3] (E. faecium ATCC 51559). The IC50 against MetRS (T. brucei) is below 0.04 µM; at MetRS (C. parvum) (setting [4]) it was 0.0994 µM. Also, the EC50 in the experiment with T. brucei is 0.00173 µM; in the experiment on T. cruzi (Trypanosoma cruzi), 0.0347 µM; in the experiment on T. cruzi, 0.0452 µM; in the experiment on C. parvum (Cryptosporidium parvum) it was above 2 µM.
As to `CCn1c(C(O)c2ccc(Cl)cc2Cl)cn(Cc2nc3nc(Cl)ccc3[nH]2)c1=O` (centres unmarked) [Compound 2204, 1-({5-chloro-1H-imidazo[4,5-b]pyridin-2-yl}methyl)-4-[(2,4-dichlorophenyl)(hydroxy)methyl]-3-ethyl-2,3-dihydro-1H-imidazol-2-one], the MIC was found to be 0.293 mg/L (≈ 0.647 µM) in experiment [1] (MRSA ATCC33591), 1.11 mg/L (≈ 2.45 µM) in experiment [2] (S. aureus ATCC 29213) and 0.167 mg/L (≈ 0.369 µM) in experiment [3] (E. faecium ATCC 51559). Besides, the “(F) S. aureus (ATCC 29213) MIC” value in experiment [2] (S. aureus ATCC 29213) is 0.927 mg/L. In addition, the IC50 at MetRS (T. brucei) amounted to 0.053 µM; at MetRS (C. parvum) (setting [4]), 0.0825 µM. In addition, the EC50 was 0.00638 µM in the experiment on T. brucei, 0.366 µM with T. cruzi (Trypanosoma cruzi) and 1.92 µM in the experiment on C. parvum (Cryptosporidium parvum).

The record behind these values is patent publication US11584744B2 (UNIVERSITY OF WASHINGTON, priority 2017, dated 2023).
